Test results published in patent US6235284A, “Synthetic polypeptides belonging to the hepatitis C virus (HCV) and which can be used especially for detecting the latter” (Bio Merieux, priority 1992, dated 2001).

Test system: anti-HCV antibodies (HCV-positive sera)
Assay: ELISA detection of anti-HCV antibodies in HCV-positive sera with adsorbed peptides
Type: binding, human
Experimental: The reactivity of these three peptides towards the sera of individuals infected with the hepatitis C virus, termed (HCV) positive, was evaluated in an ELISA test according to the procedure described below.
Detection of anti-HCV Antibodies by ELISA
The wells of a microtiter plate of "NUNC MAXISORB™" trademark are saturated with 100 μl of a solution containing the peptide or a mixture of peptides (10 μg/ml) for 2 hours at 37° C. The plate is then emptied, then washed with a wash buffer containing 0.05% TWEEN™ 20(polysorbate 20). The wells are saturated with 100 μl of wash buffer supplemented with 10% goat serum (v/v), then incubated for 30 minutes at 37° C., then washed again as above. The sera to be analyzed are diluted to the appropriate dilution with saturation buffer. The incubation of the sera is 1 hour at 37° C. The wells are again washed. The solution of conjugate (goat IgG to human IgG labelled with peroxidase) at a dilution of 1/1000 in the saturation buffer is then added and the incubation lasts for 90 minutes at 37° C. After washing, the solution of orthophenylenediamine substrate is added. After 10 minutes, the reaction is stopped with 50 μl of H2 SO4 and the optical density is read at 492 nm. It should be noted that all the tests were carried out in duplicate.
For that, the different peptides are adsorbed on the microplates at a concentration of 10 μg/ml and the sera are used at 1/100 dilution.
The values obtained, which are collated in Table 1 below, correspond to the optical density (OD) multiplied by 10^3, at 492 nm.
For each serum the experiment was carried out in duplicate. The **** are values outside the upper scale.
The different peptides are absorbed onto microplates at a concentration of 10 μg/ml and the sera are used at the dilution stated.
The values obtained, which are collated in Table 2 below, correspond to the optical density at 492 nm. All the experiments were carried out in duplicate.
Each serum was, in a first instance, tested at the dilution 1/100.
The values given correspond to the optical density read at 492 nm multiplied by the factor 10^3.

P27Y: peptide corresponding to the amino acid sequence 7 to 35 of the CORE protein (PQRKTKRNTNRRPQDVKFPGGGQIVGGVY)
optical density at 492 nm (Table 4, serum A 8, 1/1000): 1198 OD × 10^3
optical density at 492 nm (Table 4, serum A 8, 1/10,000): 118 OD × 10^3
optical density at 492 nm (Table 4, serum A 9, 1/1000): 1388 OD × 10^3
optical density at 492 nm (Table 4, serum A 9, 1/10,000): 182 OD × 10^3
optical density at 492 nm (Table 4, serum A 10, 1/100): 2308 OD × 10^3
optical density at 492 nm (Table 4, serum A 10, 1/1000): 334 OD × 10^3
optical density at 492 nm (Table 4, serum A 10, 1/10,000): 31 OD × 10^3
optical density at 492 nm (Table 4, serum A 11, 1/100): 1937 OD × 10^3
optical density at 492 nm (Table 4, serum A 11, 1/1000): 226 OD × 10^3
optical density at 492 nm (Table 4, serum A 11, 1/10,000): 33 OD × 10^3
optical density at 492 nm (Table 4, serum A 12, 1/10,000): 365 OD × 10^3
optical density at 492 nm (Table 4, serum P 1, 1/100): 620 OD × 10^3
optical density at 492 nm (Table 4, serum P 2, 1/100): 891 OD × 10^3
optical density at 492 nm (Table 4, serum P 3, 1/100): 1470 OD × 10^3
optical density at 492 nm (Table 4, serum P 4, 1/1000): 2111 OD × 10^3
optical density at 492 nm (Table 4, serum P 4, 1/10,000): 324 OD × 10^3
optical density at 492 nm (Table 4, serum P 5, 1/10,000): 856 OD × 10^3
optical density at 492 nm (Table 4, serum P 7, 1/10,000): 1667 OD × 10^3
optical density at 492 nm (Table 4, serum P 8, 1/10,000): 654 OD × 10^3
optical density at 492 nm (Table 4, serum P 10, 1/100): 60 OD × 10^3
optical density at 492 nm (Table 4, serum P 14, 1/10,000): 566 OD × 10^3
optical density at 492 nm (Table 4, serum P 16, 1/1000): 913 OD × 10^3
optical density at 492 nm (Table 4, serum P 16, 1/10,000): 104 OD × 10^3
optical density at 492 nm (Table 4, serum P 17, 1/100): 2300 OD × 10^3
optical density at 492 nm (Table 4, serum P 23, 1/100): 138 OD × 10^3
optical density at 492 nm (Table 4, serum P 24, 1/100): 1063 OD × 10^3
optical density at 492 nm (Table 4, serum P 29, 1/100): 347 OD × 10^3
optical density at 492 nm (Table 4, serum P 30, 1/100): 2274 OD × 10^3

P37G: peptide corresponding to the amino acid sequence 7 to 45 of the CORE protein (PQRKTKRNTNRRPQDVKFPGGGQIVGGVYLLPRRGPRLG)
optical density at 492 nm (Table 5, serum A8, 1/10,000): 525 OD × 10^3
optical density at 492 nm (Table 5, serum A 9, 1/1000): 2059 OD × 10^3
optical density at 492 nm (Table 5, serum A 9, 1/10,000): 275 OD × 10^3
optical density at 492 nm (Table 5, serum A10, 1/10,000): 1215 OD × 10^3
optical density at 492 nm (Table 5, serum A11, 1/10,000): 321 OD × 10^3
optical density at 492 nm (Table 5, serum A12, 1/10,000): 823 OD × 10^3
optical density at 492 nm (Table 5, serum A13, 1/10,000): 1061 OD × 10^3
optical density at 492 nm (Table 5, serum A14, 1/1000): 539 OD × 10^3
optical density at 492 nm (Table 5, serum A14, 1/10,000): 65 OD × 10^3
optical density at 492 nm (Table 5, serum A15, 1/10,000): 905 OD × 10^3
optical density at 492 nm (Table 5, serum A16, 1/10,000): 2003 OD × 10^3
optical density at 492 nm (Table 5, serum A19, 1/10,000): 446 OD × 10^3
optical density at 492 nm (Table 5, serum A20, 1/10,000): 2338 OD × 10^3
optical density at 492 nm (Table 5, serum A21, 1/1000): 652 OD × 10^3
optical density at 492 nm (Table 5, serum A21, 1/10,000): 90 OD × 10^3
optical density at 492 nm (Table 5, serum A22, 1/1000): 702 OD × 10^3
optical density at 492 nm (Table 5, serum A22, 1/10,000): 102 OD × 10^3
optical density at 492 nm (Table 5, serum A23, 1/10,000): 557 OD × 10^3
reactivity towards HCV-positive sera (in words): little or no difference is observed in reactivity

K22Y: peptide corresponding to the amino acid sequence 12 to 35 of the CORE protein (KRNTNRRPQDVKFPGGGQIVGGVY)
optical density at 492 nm (Table 4, serum A 8, 1/1000): 431 OD × 10^3
optical density at 492 nm (Table 4, serum A 8, 1/10,000): 56 OD × 10^3
optical density at 492 nm (Table 4, serum A 9, 1/100): 2152 OD × 10^3
optical density at 492 nm (Table 4, serum A 9, 1/1000): 282 OD × 10^3
optical density at 492 nm (Table 4, serum A 9, 1/10,000): 43 OD × 10^3
optical density at 492 nm (Table 4, serum A 10, 1/100): 2114 OD × 10^3
optical density at 492 nm (Table 4, serum A 10, 1/1000): 207 OD × 10^3
optical density at 492 nm (Table 4, serum A 10, 1/10,000): 26 OD × 10^3
optical density at 492 nm (Table 4, serum A 11, 1/100): 1878 OD × 10^3
optical density at 492 nm (Table 4, serum A 11, 1/1000): 212 OD × 10^3
optical density at 492 nm (Table 4, serum A 11, 1/10,000): 31 OD × 10^3
optical density at 492 nm (Table 4, serum A 12, 1/1000): 646 OD × 10^3
optical density at 492 nm (Table 4, serum A 12, 1/10,000): 62 OD × 10^3
optical density at 492 nm (Table 4, serum B 3, 1/100): 2033 OD × 10^3
optical density at 492 nm (Table 4, serum P 1, 1/100): 435 OD × 10^3
optical density at 492 nm (Table 4, serum P 2, 1/100): 666 OD × 10^3
optical density at 492 nm (Table 4, serum P 3, 1/100): 1031 OD × 10^3
optical density at 492 nm (Table 4, serum P 4, 1/1000): 1959 OD × 10^3
optical density at 492 nm (Table 4, serum P 4, 1/10,000): 300 OD × 10^3
optical density at 492 nm (Table 4, serum P 5, 1/10,000): 394 OD × 10^3
optical density at 492 nm (Table 4, serum P 7, 1/10,000): 1487 OD × 10^3
optical density at 492 nm (Table 4, serum P 8, 1/1000): 2257 OD × 10^3
optical density at 492 nm (Table 4, serum P 8, 1/10,000): 335 OD × 10^3
optical density at 492 nm (Table 4, serum P 10, 1/100): 66 OD × 10^3
optical density at 492 nm (Table 4, serum P 14, 1/10,000): 398 OD × 10^3
optical density at 492 nm (Table 4, serum P 16, 1/1000): 610 OD × 10^3
optical density at 492 nm (Table 4, serum P 16, 1/10,000): 75 OD × 10^3
optical density at 492 nm (Table 4, serum P 17, 1/100): 1930 OD × 10^3
optical density at 492 nm (Table 4, serum P 23, 1/100): 125 OD × 10^3
optical density at 492 nm (Table 4, serum P 24, 1/100): 735 OD × 10^3
optical density at 492 nm (Table 4, serum P 29, 1/100): 310 OD × 10^3
optical density at 492 nm (Table 4, serum P 30, 1/100): 1805 OD × 10^3

S32Y: peptide corresponding to the amino acid sequence 2 to 35 of the CORE protein (STNPKPQRKTKRNTNRRPQDVKFPGGGQIVGGVY)
optical density at 492 nm (Table 4, serum A 8, 1/1000): 1372 OD × 10^3
optical density at 492 nm (Table 4, serum A 8, 1/10,000): 173 OD × 10^3
optical density at 492 nm (Table 4, serum A 9, 1/1000): 1941 OD × 10^3
optical density at 492 nm (Table 4, serum A 9, 1/10,000): 297 OD × 10^3
optical density at 492 nm (Table 4, serum A 10, 1/1000): 373 OD × 10^3
optical density at 492 nm (Table 4, serum A 10, 1/10,000): 33 OD × 10^3
optical density at 492 nm (Table 4, serum A 11, 1/100): 2240 OD × 10^3
optical density at 492 nm (Table 4, serum A 11, 1/1000): 228 OD × 10^3
optical density at 492 nm (Table 4, serum A 11, 1/10,000): 36 OD × 10^3
optical density at 492 nm (Table 4, serum A 12, 1/10,000): 588 OD × 10^3
optical density at 492 nm (Table 4, serum P 1, 1/100): 703 OD × 10^3
optical density at 492 nm (Table 4, serum P 2, 1/100): 1177 OD × 10^3
optical density at 492 nm (Table 4, serum P 3, 1/100): 1576 OD × 10^3
optical density at 492 nm (Table 4, serum P 4, 1/1000): 2165 OD × 10^3
optical density at 492 nm (Table 4, serum P 4, 1/10,000): 369 OD × 10^3
optical density at 492 nm (Table 4, serum P 5, 1/10,000): 1242 OD × 10^3
optical density at 492 nm (Table 4, serum P 7, 1/10,000): 1932 OD × 10^3
optical density at 492 nm (Table 4, serum P 8, 1/10,000): 1068 OD × 10^3
optical density at 492 nm (Table 4, serum P 10, 1/100): 78 OD × 10^3
optical density at 492 nm (Table 4, serum P 14, 1/10,000): 601 OD × 10^3
optical density at 492 nm (Table 4, serum P 16, 1/1000): 983 OD × 10^3
optical density at 492 nm (Table 4, serum P 16, 1/10,000): 124 OD × 10^3
optical density at 492 nm (Table 4, serum P 23, 1/100): 157 OD × 10^3
optical density at 492 nm (Table 4, serum P 24, 1/100): 1214 OD × 10^3
optical density at 492 nm (Table 4, serum P 29, 1/100): 400 OD × 10^3
